Values quoted from earlier work in paper PMC6709472 (Antimicrobial Agents and Chemotherapy, 2019).

What was measured:
[1] = read-out: 50% effective concentration [EC50]; in vitro activity quoted for VL development
[2] = tested on: visceral leishmaniasis (VL); settings: 12.5 mg/kg of body weight orally twice a day; hamster models of VL

In the case of `O=[N+]([O-])c1cn2c(n1)O[C@@H](COc1ccc(-c3ccc(F)cc3)nc1)CC2` [DNDI-0690], the EC50 [1] is listed as 170 nM and the in vivo efficacy [2] is listed as greater than 99%.
